US20210283107A1, “Methods to Expand the Spectrum of Gram-Positive Antibiotics” (NORTH CAROLINA STATE UNIVERSITY, priority 2016, published 2021)
In brackets after ≈: the same amount, converted by molar mass.

Assays:
[1] = test system: A. baumannii strain 5075 (AB5075); assay: Macrolide sensitization / antibiotic resensitization: antibiotic MIC in presence of compound (broth microdilution); assay type: cell-based, Acinetobacter baumannii; settings: AB5075; for MIC (μg/mL) of the antibiotic / MIC: antibiotic alone, no compound (control row); for MIC: Acinetobacter baumannii, read-out: MIC (μg/mL) of the antibiotic
Experimental: A. baumannii 5075 was plated on LB agar, then grown in CAMHB for 6-8 h and this culture was used to inoculate fresh CAMHB (5×10^5 CFU/mL). The resulting suspension was aliquoted (5 mL) into culture tubes and compound, from 100 mM DMSO stock, was added. One aliquot was not treated (control). 1 mL of each sample was transferred to a new culture tube and antibiotic was added. Rows 2-12 of a 96-well microtiter plate were filled with 100 μL/well from the remaining 4 mL bacterial subcultures, allowing the concentration of compound to be kept uniform throughout the antibiotic dilution procedure. Samples containing antibiotic were aliquoted (200 μL) into the corresponding first row wells of the microtiter plate. Row 1 wells were mixed 6 to 8 times then 100 μL was withdrawn and transferred to row 2. Row 2 wells were mixed 6 to 8 times, followed by a 100 μL transfer from row 2 to row 3. This procedure was repeated to serially dilute the rest of the rows of the microtiter plate, with the exception of the final row, to which no antibiotic was added (to check for growth of bacteria in the presence of compound alone). The microtiter plate was then covered, placed in a covered damp plastic container and incubated under stationary conditions at 37° C. After 16-18 hrs minimum inhibitory concentration (MIC) values were recorded as the lowest concentration of antibiotic at which there was no visible growth of bacteria. Experiments were carried out in duplicate each time and repeated at least twice.
The difference in antibiotic MIC between the control (no compound) sample, and the samples containing each compound was recorded as the fold-reduction.
Day Cultures (6 h) were subcultured to 5×10^5 CFU/mL in cation adjusted Mueller-Hinton broth (CAMHB). […] One milliliter of the resulting solution was aliquoted into a separate culture tube and was dosed with antibiotic so that the resulting concentration was the highest desirable concentration to be tested. Bacteria treated with antibiotic alone were used as a control. Row one of a 96-well plate was filled with 200 μL of the antibiotic/compound solution, and the remaining rows were filled with 100 μL of the remaining 4 mL bacterial subculture. The wells in row one were mixed five times before 100 μL was transferred to the following row (row two). Row two was then mixed five times, and 100 μL was transferred to row three. This process was repeated until the second to last row had been reached. The last row is left unexposed to antibiotic in order to serve as a negative control. The antibiotic only treated bacteria was plated by aliquoting 200 μL of the treated bacteria into row one and filling the remaining rows with untreated bacteria from the original bacteria subculture. The rows were mixed in the same way as described above. Plates were covered with Glad Press n'Seal and were incubated under stationary conditions at 37° C. for 16 hours. MIC values were recorded as the lowest concentration at which no bacterial growth was observed. Fold reductions were determined by comparison of the compound treated wells with the antibiotic only treated control wells.

[2] = test system: A. baumannii strain 5075 (AB5075); assay: Broth microdilution MIC determination of compound alone; assay type: cell-based; settings: Acinetobacter baumannii; compound alone; AB5075; read-out: MIC
Experimental: Our initial screening began by testing a diverse selection of 2-AI compounds from our internal library for their minimal inhibitory concentrations (MIC) against A. baumannii isolate 5075.
Day Cultures (6 h) were subcultured to 5×10^5 CFU/mL in cation adjusted Mueller-Hinton broth (CAMHB). Aliquots (1 mL) were placed in culture tubes, and compound was added from 100 mM stock solutions, such that the compound concentration equaled the highest concentration tested (200 μM or 64 μg/mL). Samples were then aliquoted (200 μL) into the first row of wells of a 96-well plate, with all remaining wells being filled with 100 μL of initial bacterial subculture. The wells in row one were mixed five times before 100 μL was transferred to the following row (row two). Row two was then mixed five times, and 100 μL was transferred to row three. This processed was repeated until the final row had been mixed. This process provided a serial dilution of the compound. Plates were covered with Glad Press n'Seal and were incubated under stationary conditions at 37° C. for 16 hours. MIC values were recorded as the lowest concentration at which no bacterial growth was observed.

[3] = compound at 60 μM vs antibiotic alone
[4] = compound at 30 μM vs antibiotic alone
[5] = in presence of compound at 30 μM

spiramycin [reference compound]
MIC (μg/mL) of the antibiotic [1]: >512 µg/mL

Nc1nc(CCCNC(=O)c2cc(Br)c(Br)[nH]2)c[nH]1
MIC [2]: > 200 µM

Nc1nc(-c2ccc(NC(=O)c3cccc(Br)c3)cc2)c[nH]1 [Compound 19]
Fold reduction (erythromycin MIC) [1, 3]: 8 fold | MIC [2]: > 200 µM

Nc1nc(-c2ccc(NC(=O)c3cc(F)cc(F)c3)cc2)c[nH]1 [Compound 15]
Fold reduction (erythromycin MIC) [1, 3]: 8 fold | MIC [2]: 200 µM (≈ 62.9 µg/mL)

Nc1nc(-c2ccc(NC(=O)c3ccc(C(F)(F)F)c(F)c3)cc2)c[nH]1 [Compound 24]
MIC [2]: 25 µM (≈ 9.11 µg/mL)

CCCCCC(=O)Nc1ccc(-c2c[nH]c(N)n2)cc1.Cl [Compound 3]
Fold reduction (azithromycin MIC) [1, 3]: 8 fold | Fold reduction (clarithromycin MIC) [1, 3]: 32 fold | Fold reduction (erythromycin MIC) [1, 3]: 16 fold | Azithromycin MIC ([1]; in presence of compound at 60 μM): 8 µg/mL | MIC [2]: > 200 µM

CO[C@H]1C[C@H](O[C@H]2[C@H](C)[C@@H](O[C@@H]3O[C@H](C)C[C@H](N(C)C)[C@H]3OC(C)=O)[C@@H](C)C[C@@]3(CO3)C(=O)[C@H](C)[C@@H](OC(C)=O)[C@@H](C)[C@@H](C)OC(=O)[C@@H]2C)O[C@@H](C)[C@@H]1OC(C)=O [Troleandomycin, troleandomycin, reference compound]
MIC [1]: > 512 µg/mL

CCCCCCCCCCCNC(=O)CCCc1c[nH]c(C)n1.Cl [Compound 5]
Fold reduction (azithromycin MIC) [1, 4]: 8 fold | Fold reduction (clarithromycin MIC) [1, 4]: 256 fold | Fold reduction (erythromycin MIC) [1, 4]: 16 fold | Azithromycin MIC [1, 5]: 8 µg/mL | MIC [2]: 100 µM

CCCCCCCCCCNC(=O)Cn1cc(CCCCCc2c[nH]c(N)n2)nn1.Cl [Compound 6]
Fold reduction (erythromycin MIC) [1, 3]: 4 fold | MIC [2]: > 200 µM

NCC[C@H](O)C(=O)N[C@@H]1C[C@H](N)[C@@H](O[C@H]2O[C@H](CN)[C@@H](O)[C@H](O)[C@H]2O)[C@H](O)[C@H]1O[C@H]1O[C@H](CO)[C@@H](O)[C@H](N)[C@H]1O [Amikacin, reference compound]
MIC (μg/mL) of the antibiotic [1]: 128 µg/mL

CCCCCCc1ccc(-c2nc(N)[nH]c2CCCCCC)cc1
MIC [2]: > 200 µM

Nc1nc(-c2ccc(NC(=O)c3ccc(Br)cc3)cc2)c[nH]1 [Compound 18]
Fold reduction (erythromycin MIC) [1, 3]: 4 fold | MIC [2]: > 200 µM

CCCCCCC(=O)Nc1ccc2[nH]c(N)nc2c1
MIC [2]: > 200 µM

CCCCCCC/C=C\CCCCCCCc1c[nH]c(N)n1
MIC [2]: > 200 µM

C/C(=C\c1ccccc1)CNC(=O)Cn1cc(CCCCCc2c[nH]c(N)n2)nn1
MIC [2]: > 200 µM

Nc1nc(CCCCCc2cn(-c3ccc(C(=O)NCCc4ccccc4)cc3)nn2)c[nH]1
MIC [2]: > 200 µM

colistin [reference compound]
MIC (μg/mL) of the antibiotic [1]: 0.5 µg/mL

CCCCCCC(=O)Nc1cccc(-c2c[nH]c(N)n2)c1.Cl [Compound 11]
Fold reduction (erythromycin MIC) [1, 3]: 4 fold | MIC [2]: > 200 µM

CCCCCc1ccc(C(=O)NCCn2cc(CCCCCc3cnc(N)n3Cc3ccc(CCCC)cc3)nn2)cc1 [Compound 7]
Fold reduction (erythromycin MIC) [1, 3]: 4 fold | MIC [2]: 200 µM (≈ 117 µg/mL)

Cl.Nc1nc(-c2ccc(NC(=O)/C=C/c3ccccc3)cc2)c[nH]1 [Compound 2]
Fold reduction (azithromycin MIC) [1, 4]: 4 fold | Fold reduction (clarithromycin MIC) [1, 4]: 32 fold | Fold reduction (erythromycin MIC) [1, 4]: 8 fold | Azithromycin MIC [1, 5]: 16 µg/mL | MIC [2]: 100 µM

NC[C@H]1O[C@H](O[C@H]2[C@H](O)[C@@H](O[C@H]3O[C@H](CO)[C@@H](O)[C@H](N)[C@H]3O)[C@H](N)C[C@@H]2N)[C@H](N)C[C@@H]1O [Tobramycin, reference compound]
MIC [1]: 256 µg/mL

CCCCCCC(CCCCCC)NC(=O)CCCc1c[nH]c(N)n1
MIC [2]: 100 µM (≈ 35.1 µg/mL)

Nc1nc(-c2ccc(NC(=O)c3ccc(Cl)c(Cl)c3)cc2)c[nH]1 [Compound 9]
Fold reduction (clarithromycin MIC) [1, 4]: 64 fold | Fold reduction (erythromycin MIC) [1, 4]: 16 fold | MIC [2]: 100 µM (≈ 34.7 µg/mL)

CCCCCCCCCC(=O)NCCn1cc(CCCCCc2c[nH]c(N)n2)nn1
MIC [2]: > 200 µM

Nc1nc(-c2ccc(NC(=O)c3ccccc3F)cc2)c[nH]1 [Compound 22]
MIC [2]: > 200 µM

Nc1nc(-c2ccc(NC(=O)c3c(F)c(F)c(F)c(F)c3F)cc2)c[nH]1 [Compound 17]
Fold reduction (erythromycin MIC) [1, 3]: 4 fold | MIC [2]: > 200 µM

CCCCCCCCCCn1c(CCCCCC)cnc1N.Cl [Compound 12]
Fold reduction (erythromycin MIC) [1, 3]: 4 fold | MIC [2]: 100 µM

CCCCCCCCCC(=O)N[C@@H](Cc1c[nH]c2ccccc12)C(=O)N[C@H](CC(N)=O)C(=O)N[C@@H](CC(=O)O)C(=O)N[C@@H]1C(=O)NCC(=O)N[C@@H](CCCN)C(=O)N[C@@H](CC(=O)O)C(=O)N[C@H](C)C(=O)N[C@@H](CC(=O)O)C(=O)NCC(=O)N[C@H](CO)C(=O)N[C@@H]([C@H](C)CC(=O)O)C(=O)N[C@@H](CC(=O)c2ccccc2N)C(=O)O[C@@H]1C [Daptomycin, reference compound]
MIC [1]: 2050 µg/mL

CC1(C)CC(=O)N(c2ccc3[nH]c(N)nc3c2)C(=O)C1
MIC [2]: > 200 µM

CO[C@H]1C[C@H](O[C@H]2[C@H](C)[C@@H](O[C@@H]3O[C@H](C)C[C@H](N(C)C)[C@H]3O)[C@@H](C)C[C@@]3(CO3)C(=O)[C@H](C)[C@@H](O)[C@@H](C)[C@@H](C)OC(=O)[C@@H]2C)O[C@@H](C)[C@@H]1O [Oleandomycin, oleandomycin, reference compound]
MIC (μg/mL) of the antibiotic [1]: 256 µg/mL

CC(=O)NC[C@H]1CN(c2ccc(N3CCOCC3)c(F)c2)C(=O)O1 [Linezolid, linezolid, reference compound]
MIC [1]: 256 µg/mL

Nc1nc(-c2ccc(NC(=O)c3ccc(Cl)cc3)cc2)c[nH]1 [Compound 16]
Fold reduction (erythromycin MIC) [1, 3]: 4 fold | MIC [2]: > 200 µM

CCCCCCCCn1cc(Cc2ccccc2)nc1N
MIC [2]: > 200 µM

Cl.Nc1ncc(CCCCCc2ccccc2)[nH]1 [Compound 13]
Fold reduction (erythromycin MIC) [1, 4]: 4 fold | MIC [2]: 200 µM

[H]/N=C(/N)N[C@H]1[C@H](O)[C@@H](O)[C@H](O[C@@H]2O[C@@H](C)[C@](O)(C=O)[C@H]2O[C@@H]2O[C@@H](CO)[C@H](O)[C@@H](O)[C@@H]2NC)[C@@H](N/C(N)=N\[H])[C@@H]1O [Streptomycin, reference compound]
MIC [1]: > 512 µg/mL

Nc1nc(-c2ccc(NC(=O)c3ccc(C(F)(F)F)cc3)cc2)c[nH]1 [Compound 23]
MIC [2]: 50 µM (≈ 17.3 µg/mL)

CO[C@@H]1[C@@H](O[C@@H]2O[C@H](C)[C@@H](O[C@H]3C[C@@](C)(O)[C@@H](OC(=O)CC(C)C)[C@H](C)O3)[C@H](N(C)C)[C@H]2O)[C@@H](CC=O)C[C@@H](C)[C@@H](O)/C=C/C=C/C[C@@H](C)OC(=O)C[C@H]1OC(C)=O [Josamycin, josamycin, reference compound]
MIC (μg/mL) of the antibiotic [1]: 128 µg/mL

CCOc1ccc(Cn2c(CCCCCc3cn(CCNC(=O)c4ccc(C)cc4)nn3)cnc2N)cc1OCC
MIC [2]: 100 µM (≈ 56 µg/mL)

Nc1nc2cc(NC(=O)c3c(F)c(F)c(F)c(F)c3F)ccc2[nH]1
MIC [2]: > 200 µM

NC[C@H]1O[C@H](O[C@H]2[C@H](O)[C@@H](O[C@H]3O[C@H](CO)[C@@H](O)[C@H](N)[C@H]3O)[C@H](N)C[C@@H]2N)[C@H](O)[C@@H](O)[C@@H]1O [Kanamycin, reference compound]
MIC [1]: > 512 µg/mL

Cc1ccc(C(=O)Nc2ccc3[nH]c(N)nc3c2)cc1
MIC [2]: > 200 µM

CCCCCCc1ccc(-c2c[nH]c(N)n2)cc1
MIC [2]: 100 µM (≈ 24.3 µg/mL)

Neomycin [reference compound]
MIC (μg/mL) of the antibiotic [1]: 64 µg/mL

Gentamicin [reference compound]
MIC (μg/mL) of the antibiotic [1]: >512 µg/mL
